Eight substances from patent US11959083B2, “Immunosuppression-reverting oligonucleotides inhibiting the expression of CD39” (Secarna Pharmaceuticals GmbH & Co. KG, priority 2016, dated 2024) can be followed below.

Common to all, as to assay type: cell-based, human
Data set [1] deals with hCD39 mRNA. Description: IC50 determination / concentration-dependent hCD39 mRNA knockdown in HDLM-2 cells. The following applies: for mRNA inhibition: HDLM-2, 3 days; for IC50: HDLM-2 cells, hCD39 mRNA, 3 days. The procedure:
HDLM-2 cells were treated for 3 days with the indicated concentration of the respective antisense oligonucleotide. Residual hCD39 expression is depicted compared to untreated control cells. hCD39 mRNA expression values were normalized to expression of the housekeeping gene HPRT1.
The antisense oligonucleotide A04040H (SEQ ID No. 3) that had shown potent activity in the first and second screening round was used as reference. HDLM-2 cells treated for 3 days with the indicated concentrations of the respective antisense oligonucleotide. hCD39 mRNA expression values were normalized to expression of the housekeeping gene HPRT1. Residual hCD39 mRNA expression relative to untreated cells (set as 100) is depicted. Depicted is the mean of triplicate wells+/−SD.
In a second experiment the concentration-dependency of effects and the IC50 values of hCD39 antisense oligonucleotides A04010H (SEQ ID No.14), A04016H (SEQ ID No.20), A04017H (SEQ ID No.21), A04020H (SEQ ID No. 24) and A04026H (SEQ ID No.30) were tested. […] HDLM-2 cells were treated with titrated amounts of the respective antisense oligonucleotide (concentrations: 10 μM, 3.3 μM, 1.1 μM, 370 nM, 120 nM, 41 nM, 14 nM, 4.5 nM). hCD39 mRNA expression was analyzed after three days of treatment. FIG. 5 and Table 9 depicts the concentration-dependent reduction of hCD39 mRNA expression by the selected hCD39 antisense oligonucleotides.
The hCD39 antisense oligonucleotides A04051H (SEQ ID No.88), A04052H (SEQ ID No.89), A04053H ([…]), A04056H (SEQ ID No.92), A04059H (SEQ ID No.94), A04060H (SEQ ID No.95), and A04061H (SEQ ID No.96) had shown potent single-dose activity in both HDLM-2 and A-172 cells. […] The antisense oligonucleotide A04040H that had shown potent activity in the first screening round was used as reference. hCD39 mRNA expression was analyzed after 3 days of treatment. FIG. 7 depicts the concentration-dependent reduction of hCD39 expression by hCD39 antisense oligonucleotides.

In data set [2] the test system is hCD39 mRNA. Description: hCD39 mRNA knockdown efficacy screen in HDLM-2 cells (single dose, gymnotic delivery, QuantiGene Singleplex). The arrangement: key to Relative hCD39 mRNA expression (compared to non-treated cells): *: values are below detection limit. Conditions: 10 μM, 3 days; for Mean hCD39 mRNA expression normalized to HPRT1 relative to untreated control = 1: first screening round; for Relative hCD39 mRNA expression (compared to non-treated cells): second screening round, normalized to HPRT1; for Residual hCD39 mRNA expression relative to untreated cells (set as 1): third screening round. In short, it runs like this: (§1)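 Antisense oligonucleotides given once at 10 μM without transfection reagent (gymnotic) to HDLM-2 or A-172 cells for 3 days. hCD39 mRNA measured by QuantiGene Singleplex, normalized to HPRT1 and expressed relative to untreated cells; triplicate means.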

Data set [3] has as its system hCD39 mRNA. Description: hCD39 mRNA knockdown efficacy screen in A-172 cells (single dose, gymnotic delivery, QuantiGene Singleplex). Conditions: 10 μM, 3 days; for Mean hCD39 mRNA expression (relative to untreated cells set as 1): first screening round; for Mean hCD39 mRNA expression (relative to untreated cells set as 1) / Relative hCD39 mRNA expression (compared to non-treated cells): normalized to HPRT1; for Relative hCD39 mRNA expression (compared to non-treated cells): second screening round; for Residual hCD39 mRNA expression relative to untreated cells (set as 1): third screening round. A digest of the protocol: as §1

The mark [4] stands for this setting: first screening round (Table 8).
Setting [5] is: third screening round (Table 12).
[6] abbreviates: second screening round (Table 9).

l = locked nucleic acid (LNA); d = 2'-deoxy (DNA)

As to “+A*+C*C*C*T*G*A*G*T*T*G*T*A*A*C*+T (antisense ACCCTGAGTTGTAACT; sugars from the 5' end l2 d13 l1, all phosphorothioate, methylation of C not given here) [A04033H]”, the mRNA inhibition in data set [1] (0.0045 μM, Table 8) is recorded as 3.05%; in data set [1] (0.013 μM, Table 8), −3.30%; in data set [1] (0.04 μM, Table 8), 24.10%; in data set [1] (0.12 μM, Table 8) it was 46.98%; in data set [1] (0.4 μM, Table 8) it was 70.74%; in data set [1] (1.1 μM, Table 8), 83.81%. Besides, the mRNA inhibition in data set [1] (3.3 μM, Table 8) is 92.79%; in data set [1] (10 μM, Table 8), 98.02%. In addition, in data set [1] (setting [4]), it took 119 nM to reach half-maximal inhibition (IC50). In addition, the “Mean hCD39 mRNA expression normalized to HPRT1 relative to untreated control = 1” value in data set [2] is reported as 0.10. The “Relative hCD39 mRNA expression (compared to non-treated cells)” value in data set [2] is reported as “*”; in data set [3], 0.14. Further, the “Mean hCD39 mRNA expression (relative to untreated cells set as 1)” value in data set [3] stood at 0.28.
Take “+T*+G*+C*C*A*G*A*G*T*G*C*C*T*G*+A*+T*+C (antisense TGCCAGAGTGCCTGATC; sugars from the 5' end l3 d11 l3, all phosphorothioate, methylation of C not given here) [A04042H]”: the mRNA inhibition in data set [1] (0.0045 μM, Table 8) is −20.02%; in data set [1] (0.013 μM, Table 8), −2.65%; in data set [1] (0.04 μM, Table 8) it was 22.51%; in data set [1] (0.12 μM, Table 8), 32.44%; in data set [1] (0.4 μM, Table 8) it was 58.07%; in data set [1] (1.1 μM, Table 8), 76.38%. Moreover, the mRNA inhibition was 87.12% in data set [1] (3.3 μM, Table 8) and 95.87% in data set [1] (10 μM, Table 8). For the same substance, the IC50 (as a rule, the midpoint of a concentration-inhibition curve) in data set [1] (setting [4]) was found to be 60.9 nM. In addition, the “Mean hCD39 mRNA expression normalized to HPRT1 relative to untreated control = 1” value in data set [2] was found to be 0.10. For the same substance, the results for the “Relative hCD39 mRNA expression (compared to non-treated cells)” value in data set [2] and in data set [3] were “*” and 0.19, respectively. Also, the “Residual hCD39 mRNA expression relative to untreated cells (set as 1)” value in data set [2] is 0.09; in data set [3], 0.00. Also, the “Mean hCD39 mRNA expression (relative to untreated cells set as 1)” value in data set [3] is on record as 0.37.
On to “+G*+T*+T*T*G*T*G*T*G*A*G*A*G*C*+T*+T*+T (antisense GTTTGTGTGAGAGCTTT; sugars from the 5' end l3 d11 l3, all phosphorothioate, methylation of C not given here) [A04056H]”, for which the mRNA inhibition in data set [1] (4 nM, Table 12) turned out to be 13.97%; in data set [1] (12 nM, Table 12), 37.12%; in data set [1] (40 nM, Table 12) it was 69.95%; in data set [1] (110 nM, Table 12), 91.83%; in data set [1] (330 nM, Table 12) it was 97.52%; in data set [1] (1000 nM, Table 12) it was 98.49%. The same substance showed an IC50 in data set [1] (setting [5]) of 20.2 nM. The “Residual hCD39 mRNA expression relative to untreated cells (set as 1)” value in data set [2] worked out at 0.01; in data set [3], 0.09.
Take “+G*G*+A*C*A*A*T*G*G*T*T*G*+C*+T*+C (antisense GGACAATGGTTGCTC; sugars from the 5' end l1 d1 l1 d9 l3, all phosphorothioate, methylation of C not given here) [A04016H]”: the mRNA inhibition is recorded as 18.41% in data set [1] (0.0045 μM, Table 9); 42.19% in data set [1] (0.013 μM, Table 9); 62.31% in data set [1] (0.04 μM, Table 9); 77.61% in data set [1] (0.12 μM, Table 9); 90.51% in data set [1] (0.4 μM, Table 9); 96.67% in data set [1] (1.1 μM, Table 9). The mRNA inhibition was 98.38% in data set [1] (3.3 μM, Table 9) and 98.94% in data set [1] (10 μM, Table 9). The substance also displayed an IC50 in data set [1] (setting [6]) of 12.8 nM. The “Mean hCD39 mRNA expression normalized to HPRT1 relative to untreated control = 1” value in data set [2] amounted to 0.10. Besides, the “Relative hCD39 mRNA expression (compared to non-treated cells)” value is reported as 0.10 in data set [2] and 0.09 in data set [3]. The “Mean hCD39 mRNA expression (relative to untreated cells set as 1)” value in data set [3] is 0.09.
As to “+T*+A*+T*G*G*T*A*C*A*G*T*+T*G*+G*+T (antisense TATGGTACAGTTGGT; sugars from the 5' end l3 d8 l1 d1 l2, all phosphorothioate, methylation of C not given here) [A04020H]”, the mRNA inhibition in data set [1] (0.0045 μM, Table 9) is recorded as 23.58%; in data set [1] (0.013 μM, Table 9), 68.27%; in data set [1] (0.04 μM, Table 9), 94.26%; in data set [1] (0.12 μM, Table 9), 98.89%; in data set [1] (0.4 μM, Table 9), 99.42%; in data set [1] (1.1 μM, Table 9), 99.61%. Also, the mRNA inhibition in data set [1] (3.3 μM, Table 9) stood at 99.55%; in data set [1] (10 μM, Table 9), 99.41%. For the same substance, in data set [1] (setting [6]), the IC50 came to 10.1 nM. In addition, the “Mean hCD39 mRNA expression normalized to HPRT1 relative to untreated control = 1” value in data set [2] came to 0.08. The “Relative hCD39 mRNA expression (compared to non-treated cells)” value came out at 0.08 in data set [2] and 0.04 in data set [3]. Further, the “Mean hCD39 mRNA expression (relative to untreated cells set as 1)” value in data set [3] worked out at 0.03.
Turning to “+C*+T*+T*G*A*A*C*A*C*T*G*C*+G*+A*+T (antisense CTTGAACACTGCGAT; sugars from the 5' end l3 d9 l3, all phosphorothioate, methylation of C not given here) [A04017H]”, the mRNA inhibition in data set [1] (0.0045 μM, Table 9) came out at 33.85%; in data set [1] (0.013 μM, Table 9), 49.62%; in data set [1] (0.04 μM, Table 9), 62.92%; in data set [1] (0.12 μM, Table 9) it was 79.03%; in data set [1] (0.4 μM, Table 9), 91.63%; in data set [1] (1.1 μM, Table 9), 97.05%. Also, the mRNA inhibition was 98.95% in data set [1] (3.3 μM, Table 9) and 99.37% in data set [1] (10 μM, Table 9). In addition, it took 33.1 nM to reach half-maximal inhibition in data set [1] (setting [6]) (IC50). In addition, in data set [2], the “Mean hCD39 mRNA expression normalized to HPRT1 relative to untreated control = 1” value amounted to 0.11. Also, the “Relative hCD39 mRNA expression (compared to non-treated cells)” value in data set [2] and in data set [3] was 0.11 each time. Moreover, the “Mean hCD39 mRNA expression (relative to untreated cells set as 1)” value in data set [3] amounted to 0.11.
Turning to “+G*+G*+T*T*T*G*T*G*T*G*A*G*A*G*C*+T*+T (antisense GGTTTGTGTGAGAGCTT; sugars from the 5' end l3 d12 l2, all phosphorothioate, methylation of C not given here) [A04059H]”, the mRNA inhibition is 1.21% in data set [1] (0.45 nM, Table 12); 0.00% in data set [1] (1.3 nM, Table 12); 0.00% in data set [1] (4 nM, Table 12); 12.94% in data set [1] (12 nM, Table 12); 72.06% in data set [1] (40 nM, Table 12); 91.84% in data set [1] (110 nM, Table 12). In addition, the mRNA inhibition is reported as 97.46% in data set [1] (330 nM, Table 12) and 98.31% in data set [1] (1000 nM, Table 12). The same substance displayed an IC50 in data set [1] (setting [5]) of 18.3 nM. The “Residual hCD39 mRNA expression relative to untreated cells (set as 1)” value was found to be 0.01 in data set [2] and 0.09 in data set [3].
Take “+G*+T*+T*T*G*T*G*T*G*A*G*A*G*C*+T (antisense GTTTGTGTGAGAGCT; sugars from the 5' end l3 d11 l1, all phosphorothioate, methylation of C not given here) [A04061H]”: the mRNA inhibition in data set [1] (4 nM, Table 12) is reported as 0.00%; in data set [1] (12 nM, Table 12) it was 0.00%; in data set [1] (40 nM, Table 12), 19.90%; in data set [1] (110 nM, Table 12) it was 69.28%; in data set [1] (330 nM, Table 12), 92.28%; in data set [1] (1000 nM, Table 12), 97.43%. Further, the IC50 in data set [1] (setting [5]) was 66.8 nM. In addition, the entries for the “Residual hCD39 mRNA expression relative to untreated cells (set as 1)” value in data set [2] and in data set [3] were 0.01 and 0.10, respectively.
